Test results reported in patent publication US6960614B2, “Oxygenated esters of 4-lodo phenylamino benzhydroxamic acids” (Warner-Lambert Company, priority 2000, dated 2005).

Legend:
[1] = test system: carrageenan thermal hyperalgesia response; test: Thermal hyperalgesia from intraplantar carrageenan in rats (Paw Withdrawal Latency); assay type: in vivo; settings: rat; for % Inhibition (1 hr): DOSE (PO) 10, 1 hour after drug administration; for % Inhibition (2 hr): DOSE (PO) 10, 2 hours after drug administration; for % Inhibition (3 hr): DOSE (PO) 10, 3 hours after drug administration
Experimental: The analgesic activity of the compounds of the present invention was assessed by a test with rats. […] The rats were placed on a glass plate with illumination from a halogen lamp placed directly under the injected paw. The time (in seconds) from beginning illumination until the hindlimb was withdrawn from the glass was measured and scored as Paw Withdrawal Latency (PWL). Drug substances were given by oral gavage injection 21⁄2 hours after carrageenan injection to the footpad. PWL was measured prior to carrageenan injection, just prior to drug injection, and 1, 2 (and sometimes 3) hours after drug injection. Carrageenan (a polysaccharide extracted from seaweed) causes a sterile inflammation when injected under the skin. Injection into the rat footpad causes little or no spontaneous pain-related behavior but induces hyperalgesia (pain-related behavioral responses of greater intensity than expected) to peripheral thermal or mechanical stimuli. This hyperalgesia is maximal 2 to 3 hours after injection. Treatment of rats with various analgesic drugs reduces hyperalgesia measured in this way and is a conventional test for detection of analgesic activity in rats. […] Inhibition of the carrageenan thermal hyperalgesia response was determined by the difference between reduced PWL prior to drug and subsequent to drug treatment, and was expressed as percent inhibition of the response. […] Inhibition indicates and analgesic effect.

MEK = test: Cellular Assay for Measuring MEK Inhibition (inhibition of ERK phosphorylation in C26 cells, Western blot); assay type: cell-based, murine; settings: inhibition of ERK phosphorylation in murine colon 26 (C26) carcinoma cells; determined graphically from dose response curve
Method in brief: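 Exponentially growing murine colon 26 (C26) carcinoma cells treated with varying compound concentrations at 37° C, then lysed. Western blot with antibody to dually phosphorylated ERK1/ERK2; blots stripped and re-probed for total ERK1/ERK2.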

SMILES	melting point	% Inhibition (1 hr) [1] [%]	% Inhibition (2 hr) [1] [%]	IC50 (MEK) [nM]	% Inhibition (3 hr) [1] [%]
O=C(NOCC(O)CO)c1cc(Cl)c(F)c(F)c1Nc1ccc(I)cc1Cl (stereo not shown) [Example 34]	152 to 154 °C	39.6	61.5	1	
O=C(NOCC(O)CO)c1cc(Cl)c(F)c(F)c1Nc1ccc(I)cc1F (stereo not shown) [Example 41, 5-Chloro-N-(2,3-dihydroxy-propoxy)-3,4-difluoro-2-(2-fluoro-4-iodo-phenylamino)-benzamide]	152 to 155 °C	26.7	61.0	0.73	
O=C(NOC[C@@H](O)CO)c1cc(Cl)c(F)c(F)c1Nc1ccc(I)cc1F [Example 54]	157 to 158 °C	49	52.9	1.2	29.6
O=C(NOC[C@H](O)CO)c1ccc(F)c(F)c1Nc1ccc(Br)cc1F [Example 55, 2-(4-Bromo-2-fluoro-phenylamino)-N-((R)-2,3-dihydroxy-propoxy)-3,4-difluoro-benzamide]	52 °C	36.8	60	4.5	22
Cc1cc(I)ccc1Nc1cc(F)c(Br)cc1C(=O)NOCCO [Example 16, 5-Bromo-4-fluoro-N-(2-hydroxy-ethoxy)-2-(4-iodo-2-methyl-phenylamino)-benzamide]	154.4 to 156.4 °C			20	
CNCCONC(=O)c1ccc(F)c(F)c1Nc1ccc(I)cc1C [Example 78, 3,4-Difluoro-2-(4-iodo-2-methyl-phenylamino)-N-(2-methylamino-ethoxy)-benzamide]	183 to 185 °C (dec.)			230	
O=C(c1ccc(F)c(F)c1Nc1ccc(I)cc1F)N1CC(O)CO1 (stereo not shown) [Example 83, [3,4-Difluoro-2-(2-fluoro-4-iodo-phenylamino)-phenyl]-(4-hydroxy-isoxazolidin-2-yl)-methanone]	122 to 124 °C			41	
CC(C)(CO)ONC(=O)c1cc(Cl)c(F)c(F)c1Nc1ccc(I)cc1F [Example 66, 5-Chloro-3,4-difluoro-2-(2-fluoro-4-iodo-phenylamino)-N-(2-hydroxy-1,1-dimethyl-ethoxy)-benzamide]	178 to 180 °C			2	
O=C(NOCC1(CO)CC1)c1cc(Br)c(F)c(F)c1Nc1ccc(I)cc1Cl [Example 71, 5-Bromo-2-(2-chloro-4-iodo-phenylamino)-3,4-difluoro-N-(1-hydroxymethyl-cyclopropylmethoxy)-benzamide]	152.6 to 153.9 °C			120	
CC(C)(CO)ONC(=O)c1ccc(F)c(F)c1Nc1ccc(I)cc1F [Example 65, 3,4-Difluoro-2-(2-fluoro-4-iodo-phenylamino)-N-(2-hydroxy-1,1-dimethyl-ethoxy)-benzamide]	182 to 183 °C			14	
O=C(NOCC(O)CO)c1cc(F)c(F)c(F)c1Nc1ccc(I)cc1F (stereo not shown) [Example 43, N-(2,3-Dihydroxy-propoxy)-3,4,5-trifluoro-2-(2-fluoro-4-iodo-phenylamino)-benzamide]	157 to 160 °C			1.8	
Cc1cc(I)ccc1Nc1c(C(=O)NOCCO)ccc(F)c1F [Example 2, 3,4-Difluoro-N-(2-hydroxy-ethoxy)-2-(4-iodo-2-methyl-phenylamino)-benzamide]	181 to 183 °C			3	
O=C(NOCCO)c1ccc(F)cc1Nc1ccc(I)cc1F [Example 8, 4-Fluoro-2-(2-fluoro-4-iodo-phenylamino)-N-(2-hydroxy-ethoxy)-benzamide]	117 to 119 °C			0.3	
O=C(NOCC(O)C(F)(F)F)c1cc(Br)c(F)c(F)c1Nc1ccc(I)cc1Cl (stereo not shown) [Example 73, 5-Bromo-2-(2-chloro-4-iodo-phenylamino)-3,4-difluoro-N-(3,3,3-trifluoro-2-hydroxy-propoxy)-benzamide]	186.9 to 187.3 °C			80	
CC(C)(O)CONC(=O)c1ccc(F)c(F)c1Nc1ccc(I)cc1Cl [Example 64, 2-(2-Chloro-4-iodo-phenylamino)-3,4-difluoro-N-(2-hydroxy-2-methyl-propoxy)-benzamide]	140 to 153 °C			13	
Cc1cc(I)ccc1Nc1cc(F)c(F)cc1C(=O)NOCCO [Example 12, 4,5-Difluoro-N-(2-hydroxy-ethoxy)-2-(4-iodo-2-methyl-phenylamino)-benzamide]	151.2 to 152.5 °C			22	
O=C(NOCCO)c1cc(Cl)c(F)c(F)c1Nc1ccc(I)cc1Cl [Example 20, 5-Chloro-2-(2-chloro-4-iodo-phenylamino)-3,4-difluoro-N-(2-hydroxy-ethoxy)-benzamide]	178 to 181 °C			3	
Cc1cc(I)ccc1Nc1c(C(=O)NOCCO)cc(F)c(F)c1F [Example 1, 3,4,5-Trifluoro-N-(2-hydroxy-ethoxy)-2-(4-iodo-2-methyl-phenylamino)-benzamide]	205 to 207 °C (dec.)			8	
O=C(NOCCO)c1cc(F)c(F)cc1Nc1ccc(Br)cc1F [Example 23, 2-(4-Bromo-2-fluoro-phenylamino)-4,5-difluoro-N-(2-hydroxy-ethoxy)-benzamide]	190.8 to 192.5 °C			32	
O=C(NOCCO)c1cc(F)c(F)c(F)c1Nc1ccc(I)cc1F [Example 21, 3,4,5-Trifluoro-2-(2-fluoro-4-iodo-phenylamino)-N-(2-hydroxy-ethoxy)-benzamide]	185 to 187 °C			1.8	
Cc1cc(I)ccc1Nc1c(C(=O)NOCC2(CO)CC2)ccc(F)c1F [Example 70, 3,4-Difluoro-N-(1-hydroxymethyl-cyclopropylmethoxy)-2-(4-iodo-2-methyl-phenylamino)-benzamide]	165.4 to 165.6 °C			200	
O=C(NOC[C@@H](O)CO)c1cc(Cl)c(F)c(F)c1Nc1ccc(I)cc1Cl [Example 52, 5-Chloro-2-(2-chloro-4-iodo-phenylamino)-N-[(S)-2,3-dihydroxy-propoxy]-3,4-difluoro-benzamide]	153 to 154 °C			7.8	
O=C(NOCCO)c1cc(Cl)c(F)c(F)c1Nc1ccc(I)cc1F [Example 10, 5-Chloro-3,4-difluoro-2-(2-fluoro-4-iodo-phenylamino)-N-(2-hydroxy-ethoxy)-benzamide]	180 to 180.5 °C			0.3	
O=C(NOCCCCO)c1ccc(F)c(F)c1Nc1ccc(I)cc1F [Example 33]	131.4 to 131.9 °C			5	
